Measured values reported in patent publication US5597820A, “1, 4-benzoxazine derivative and pharmaceutical compositions containing the same” (Kanebo, Ltd., priority 1994, dated 1997).
pIC50: −log10 of the molar value.

How the values were obtained:
[1] = biological target: T1, Na^+ /H^+ exchange (Rattus norvegicus, UniProt P26431); test: Na^+ /H^+ Exchange inhibitory activity (sodium propionate-induced swelling of platelets); type: cell-based, rat (male Wistar rats); conditions: rat platelet-rich plasma, 37° C.
T1 construct: A supernatant was separated to prepare platelet-rich plasma; endogenous in cells; host or cells: platelets in platelet-rich plasma from male Wistar rats (abdominal aorta blood)
T1 sequence (P26431 whole entry): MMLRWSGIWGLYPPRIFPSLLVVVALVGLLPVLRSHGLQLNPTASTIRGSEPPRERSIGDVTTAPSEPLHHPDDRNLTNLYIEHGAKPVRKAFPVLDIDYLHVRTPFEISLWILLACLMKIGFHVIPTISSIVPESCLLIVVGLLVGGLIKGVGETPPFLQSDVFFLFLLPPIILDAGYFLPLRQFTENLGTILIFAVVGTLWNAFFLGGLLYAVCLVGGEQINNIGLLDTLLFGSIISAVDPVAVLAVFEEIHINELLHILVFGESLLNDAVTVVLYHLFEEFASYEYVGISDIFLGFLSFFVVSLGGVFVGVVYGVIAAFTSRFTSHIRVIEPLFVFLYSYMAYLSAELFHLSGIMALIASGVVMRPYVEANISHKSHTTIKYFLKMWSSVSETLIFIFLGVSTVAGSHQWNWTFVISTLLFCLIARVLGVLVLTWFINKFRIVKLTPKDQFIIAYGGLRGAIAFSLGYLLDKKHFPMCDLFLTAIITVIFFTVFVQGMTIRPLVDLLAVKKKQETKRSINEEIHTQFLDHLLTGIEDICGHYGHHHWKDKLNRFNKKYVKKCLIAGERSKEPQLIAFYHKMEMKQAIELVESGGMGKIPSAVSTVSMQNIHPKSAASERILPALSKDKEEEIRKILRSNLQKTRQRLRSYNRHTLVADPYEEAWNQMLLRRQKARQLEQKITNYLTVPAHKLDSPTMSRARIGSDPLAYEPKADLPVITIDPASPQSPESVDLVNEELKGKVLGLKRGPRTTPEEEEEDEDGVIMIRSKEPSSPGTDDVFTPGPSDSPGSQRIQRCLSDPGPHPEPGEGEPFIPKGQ
Description: The compounds of the present invention were assessed for their Na^+ /H^+ exchange inhibitory activity based on an activity to inhibit sodium propionate-induced swelling of platelets in accordance with the method of Rosskoph et al. [Journal of Hypertension, 9, 231-238 (1991)].
First, platelet-rich plasma was prepared in accordance with the method of Mammen et al. [Diabetes Research and Clinical Practice, 9(3), 265-272 (1990)]. Briefly, male Wistar rats weighing 190 to 420 g were abdominally operated under anesthesia with ether and blood was taken from the abdominal aorta. For inhibiting blood coagulation, ACD solution (a mixture of 65 mM citric acid, 85 mM sodium citrate, 11 mM dextrose) was added to blood and this treated blood was centrifuged at 90× g for 10 minutes. A supernatant was separated to prepare platelet-rich plasma.
Then, a solution of the test compounds in dimethylsulfoxide was added to 140 mM sodium propionate buffer solution. To this mixture was added the platelet-rich plasma prepared above and a decrease in optical density was recorded with the passage of time at 37° C. using a platelet aggregometer (turbidimeter) and a X-Y recorder to calculate a decrease rate in optical density after mixing with platelet-rich plasma [decrease rate in optical density in the presence of the test compounds (D)]. On the other hand, the solvent dimethylsulfoxide alone was used instead of the solution of the test compounds and the decrease in optical density was recorded in the similar manner to calculate a decrease rate in optical density [control (C)]. A swelling inhibitory rate (%) was calculated using the following formula:
Swelling inhibitory rate (%)=(1-D/C)×100

[2] = tested on: myocardial infarction lesion; test: Activity to reduce myocardial infarction lesion (rat acute myocardial infarction model); type: in vivo, rat (male Sprague-Dawley rats); conditions: femoral vein
Description: Using a rat acute myocardial infarction model, the compounds of the present invention were assessed for their activity to reduce myocardial infarction lesion in accordance with the method of Petty et al. [European Journal of Pharmacology, 192, 383-388 (1991)]. Male Sprague-Dawley rats (weighing 320 to 430 g) were anesthetized by intraperitoneal administration of sodium pentobarbital (50 mg/kg). Under anesthesia, the rats were cannulated via trachea and the cannula was linked to a respirator and then the body temperature was maintained at 37° C. The chest of the rats were opened at the left fifth intercostal space and the pericardium was cut open to reveal the heart. Then a solution of the test compound in a mixed solvent of polyethylene glycol 400, ethanol and a physiological saline [3:3:14 (v/v)] was administered into the femoral vein. Ten minutes after the administration of the compound, the origin of the left coronary artery was occluded. After occlusion for 30 minutes, reperfusion was carried out for 2 hours. After reperfusion, the heart was removed and the origin of the left coronary artery was ligated again. The heart was cannulated via the aorta and a 0.025% solution of Evans blue was perfused using a syringe pump to distinguish an ischemic region (not stained with Evans blue) and a non-ischemic region (stained with Evans blue). The ischemic region was incubated in a 0.1% triphenyltetrazolium chloride (TTC) solution at 37° C. for 30 minutes to distinguish a TTC-stained region and a non-stained region (infarction region).

[3] = tested on: reperfusion arrhythmia; test: Inhibitory activity against reperfusion arrhythmia (rat acute myocardial infarction model); type: in vivo, rat (male Sprague-Dawley rats); conditions: femoral vein
Description: Using a rat acute myocardial infarction model, the compounds of the present invention were assessed for their inhibitory activity against reperfusion arrhythmia in accordance with the method of […] al. [European Journal of Pharmacology, 194, 7-10 (1991)]. Male Sprague-Dawley rats (weighing 310 to 490 g) were anesthetized by intraperitoneal administration of sodium pentobarbital (50 mg/kg). Under anesthesia, the rats were cannulated via trachea and the cannula was linked to a respirator. An electrocardiogram (the lead II) was obtained from electrodes attached to the limbs using bioelectric amplifier while maintaining the body temperature at 37° C. The chest of the rats were opened at the left fifth intercostal space and the pericardium was cut open to reveal the heart. Then a solution of the test compound in a mixed solvent of polyethylene glycol 400, ethanol and a physiological saline [3:3:14 (v/v)] was administered into the femoral vein. Ten minutes after the administration of the compound, the origin of the left coronary artery was occluded. After occlusion for 5 minutes, reperfusion was carried out for 10 minutes and a duration (second) of a ventricular fibrillation after reperfusion was measured from the electrocardiogram (mean±standard error, n=3 to 10). The ventricular fibrillation was assessed in accordance with the guideline of The Lambeth Convention [Cardiovascular Research, 22, 447-455 (1988)]. On the other hand, the mixed solvent of polyethylene glycol 400, ethanol and a physiological saline [3:3:14 (v/v)] alone was used as a control and a duration (second) of the ventricular fibrillation was measured in a similar manner. Using male Sprague-Dawley rats weighing 310 to 440 g, the duration (second) of the ventricular fibrillation was measured in the same manner as in Test 1 (n=4 to 10). Using male Sprague-Dawley rats weighing 310 to 400 g, the duration (second) of the ventricular fibrillation was measured in the same manner as in Test 1 (n=4 to 6).

[4] = Test 2 (Table 7), 1 mg/kg, control 45.2 ± 4.1, **: p < 0.01
[5] = Test 3 (Table 5), 0.1 mg/kg, control 171.0 ± 5.8, Example 19 *: p < 0.05, Example 21 **: p < 0.01
[6] = Test 2 (Table 4), 0.1 mg/kg, control 146.1 ± 5.9, **: p < 0.01

Work on CC1Oc2cc(C(=O)NC(=N)N)ccc2NC1=O (centres unmarked) [Example 8, N-amidino-2-methyl-3-oxo-3,4-dihydro-2H-1,4-benzoxazine-7-carboxamide] yielded a pIC50 [1] of 6.09.
For CC[C@H]1Oc2cc(C(=O)NC(=N)N)ccc2N(C(C)C)C1=O.CS(=O)(=O)O [Example 19, (R)-N-Amidino-2-ethyl-4-(2-propyl)-3-oxo-3,4-dihydro-2H-1,4-benzoxazine-7-carboxamide methanesulfonate], the “Infarction region/ischemic region (%) (mean ± standard error)” value [2, 4] was 20.7 ± 5.2%, the “Duration (second) of ventricular fibrillation (mean ± standard error)” value (“Duration (second) … (mean ± standard error)” for short) ([3]; Test 3 (Table 5), 0.01 mg/kg, control 171.0 ± 5.8) was 116.8 ± 40.2 s and the “Duration (second) … (mean ± standard error)” value [3, 5] was 36.5 ± 32.2 s. The “Duration (second) … (mean ± standard error)” value ([3]; Test 3 (Table 5), 1 mg/kg, control 171.0 ± 5.8, *: p < 0.05) was 0.0 ± 0.0 s and the pIC50 [1] was 7.36.
In the case of CC[C@@H]1Oc2cc(C(=O)NC(=N)N)ccc2N(CC)C1=O.Cl [Example 20, (S)-N-amidino-2,4-diethyl-3-oxo-3,4-dihydro-2H-1,4-benzoxazine-7-carboxamide hydrochloride], the “Duration (second) … (mean ± standard error)” value [3, 6] was 27.2 ± 27.2 s and the pIC50 [1] was 7.31.
CCN1C(=O)C(C)Oc2ccc(C(=O)NC(=N)N)cc21 (centres unmarked) [Example 6, N-amidino-4-ethyl-2-methyl-3-oxo-3,4-dihydro-2H-1,4-benzoxazine-6-carboxamide] gave a pIC50 [1] of 6.54.
CC1Oc2cc(C(=O)NC(=N)N)ccc2N(C2CCCC2)C1=O (centres unmarked) [Example 10, N-amidino-4-cyclopentyl-2-methyl-3-oxo-3,4-dihydro-2H-1,4-benzoxazine-7-carboxamide] showed a pIC50 [1] of 7.21.
For CCN1C(=O)COc2cc(C(=O)NC(=N)N)ccc21 [Example 12, N-amidino-4-ethyl-3-oxo-3,4-dihydro-2H-1,4-benzoxazine-7-carboxamide], the pIC50 [1] was 6.44.
Work on CCN1C(=O)C(C)Oc2cc(C(=O)NC(=N)N)ccc21 (centres unmarked) [Example 4, N-amidino-4-ethyl-2-methyl-3-oxo-3,4-dihydro-2H-1,4-benzoxazine-7-carboxamide] yielded a pIC50 [1] of 6.80.
CC[C@@H]1Oc2cc(C(=O)NC(=N)N)ccc2N(CC)C1=O.CS(=O)(=O)O [Example 21, (S)-N-amidino-2,4-diethyl-3-oxo-3,4-dihydro-2H-1,4-benzoxazine-7-carboxamide methanesulfonate] was tested, and the “Duration (second) … (mean ± standard error)” value [3, 5] was 69.0 ± 31.1 s and the pIC50 [1] was 7.05.
With CC[C@@H]1Oc2cc(C(=O)NC(=N)N)ccc2N(CC)C1=O [Example 16, (S)-N-amidino-2,4-diethyl-3-oxo-3,4-dihydro-2H-1,4-benzoxazine-7-carboxamide] the pIC50 [1] was 7.35.
With CC1Oc2cc(C(=O)NC(=N)N)ccc2N(C(C)C)C1=O (centres unmarked) [Example 2, N-amidino-2-methyl-4-(2-propyl)-3-oxo-3,4-dihydro-2H-1,4-benzoxazine-7-carboxamide] the “Infarction region/ischemic region (%) (mean ± standard error)” value ([2]; Test 1 (Table 6), 0.01 mg/kg, control 51.4 ± 2.4) was 41.7 ± 10.3%, the “Infarction region/ischemic region (%) (mean ± standard error)” value ([2]; Test 1 (Table 6), 0.1 mg/kg, control 51.4 ± 2.4) was 35.6 ± 3.5% and the “Infarction region/ischemic region (%) (mean ± standard error)” value ([2]; Test 1 (Table 6), 1 mg/kg, control 51.4 ± 2.4, **: p < 0.01) was 7.2 ± 4.9%. The “Duration (second) … (mean ± standard error)” value ([3]; Test 1 (Table 3), 0.01 mg/kg, control 92.6 ± 20.2) was 118.9 ± 59.4 s, the “Duration (second) … (mean ± standard error)” value ([3]; Test 1 (Table 3), 0.1 mg/kg, control 92.6 ± 20.2, *: p < 0.05) was 19.1 ± 12.4 s and the “Duration (second) … (mean ± standard error)” value ([3]; Test 1 (Table 3), 1 mg/kg, control 92.6 ± 20.2, *: p < 0.05) was 0.0 ± 0.0 s. The pIC50 [1] was 7.03.
With CC[C@H]1Oc2cc(C(=O)NC(=N)N)ccc2N(CC)C1=O [Example 17, (R)-N-amidino-2,4-diethyl-3-oxo-3,4-dihydro-2H-1,4-benzoxazine-7-carboxamide] the pIC50 [1] was 7.15.
CC(C)N1C(=O)C(C)(C)Oc2cc(C(=O)N=C(N)N)ccc21 [Example 1, N-amidino-2,2-dimethyl-4-(2-propyl)-3-oxo-3,4-dihydro-2H-1,4-benzoxazine-7-carboxamide] showed a pIC50 [1] of 6.70.
For CCC1Oc2cc(C(=O)NC(=N)N)ccc2N(CC)C1=O (centres unmarked) [Example 13, N-amidino-2,4-diethyl-3-oxo-3,4-dihydro-2H-1,4-benzoxazine-7-carboxamide], the pIC50 [1] was 7.08.
With CC[C@H]1Oc2cc(C(=O)NC(=N)N)ccc2N(C(C)C)C1=O [Example 15, (R)-N-Amidino-2-ethyl-4-(2-propyl)-3-oxo-3,4-dihydro-2H-1,4-benzoxazine-7-carboxamide] the pIC50 [1] was 7.44.
With CC[C@@H]1Oc2cc(C(=O)NC(=N)N)ccc2N(C(C)C)C1=O [Example 14, (S)-N-Amidino-2-ethyl-4-(2-propyl)-3-oxo-3,4-dihydro-2H-1,4-benzoxazine-7-carboxamide] the pIC50 [1] was 7.14.
CC(C)N1C(=O)COc2cc(C(=O)NC(=N)N)ccc21 [Example 3, N-amidino-4-(2-propyl)-3-oxo-3,4-dihydro-2H-1,4-benzoxazine-7-carboxamide] was tested, and the pIC50 [1] was 6.77.
For CCC1Oc2cc(C(=O)NC(=N)N)ccc2N(C(C)C)C1=O (centres unmarked) [Example 9, N-amidino-2-ethyl-4-(2-propyl)-3-oxo-3,4-dihydro-2H-1,4-benzoxazine-7-carboxamide], the pIC50 [1] was 7.47.
In the case of CC(C)N1C(=O)C(C)(C)Oc2ccc(C(=O)NC(=N)N)cc21.Cl [Example 5, N-amidino-2,2-dimethyl-4-(2-propyl)-3-oxo-3,4-dihydro-2H-1,4-benzoxazine-6-carboxamide hydrochloride], the “Duration (second) … (mean ± standard error)” value [3, 6] was 80.2 ± 27.8 s and the pIC50 [1] was 6.92.
With CCN1C(=O)C(C)(C)Oc2ccc(C(=O)NC(=N)N)cc21 [Example 7, N-amidino-2,2-dimethyl-4-ethyl-3-oxo-3,4-dihydro-2H-1,4-benzoxazine-6-carboxamide] the pIC50 [1] was 6.42.
For CC[C@H]1Oc2cc(C(=O)NC(=N)N)ccc2N(C(C)C)C1=O.Cl [Example 18, (R)-N-Amidino-2-ethyl-4-(2-propyl)-3-oxo-3,4-dihydro-2H-1,4-benzoxazine-7-carboxamide hydrochloride], the “Infarction region/ischemic region (%) (mean ± standard error)” value [2, 4] was 21.7 ± 5.5%, the “Duration (second) … (mean ± standard error)” value ([3]; Test 2 (Table 4), 0.01 mg/kg, control 146.1 ± 5.9) was 75.5 ± 29.2 s and the “Duration (second) … (mean ± standard error)” value [3, 6] was 31.4 ± 20.6 s. For the same compound, the “Duration (second) … (mean ± standard error)” value ([3]; Test 2 (Table 4), 1 mg/kg, control 146.1 ± 5.9, **: p < 0.01) was 0.0 ± 0.0 s and the pIC50 [1] was 7.42.
For N=C(N)NC(=O)c1nc(Cl)c(N)nc1N [Amiloride, amiloride, reference compound], the pIC50 [1] was 4.89.
